Laboratory results published in US20240173440A1, “HIGH PURITY COPPER RADIOPHARMACEUTICAL COMPOSITIONS AND DIAGNOSTIC AND THERAPEUTIC USES THEREOF” (Nuclidium AG, priority 2022, published 2024).

Experiments:
[1] = Remaining PET activity in the mouse body 4h p.i.; assay type: in vivo; details: mice
Method: PET/CT Imaging: Mice bearing FAP-positive and FAP-negative xenografts were injected intravenously with ^61Cu-labeled radioligands of the present disclosure or ^61Cu-NODAGA-FAPI-46 (100 μL/[…]/6-12 MBq). […] The mice were euthanized by CO2 at 4 hours p.i., and static PET scans were acquired for 30 min.
Remaining PET activity in the mouse body 4h p.i. prior to the 4h scan was determined (Table 36).

[2] = system: HT-1080.hFAP and HT-1080.wt xenografts; assay: Quantitative biodistribution in HT-1080.hFAP and HT-1080.wt xenografted mice; assay type: in vivo; details: HT-1080.hFAP and HT-1080.wt xenografts
Method: The tumors were allowed to grow to an average volume of 100-200 mm3.
Biodistribution Studies: The xenografted mice were randomized (n=5 per group) and injected intravenously via the tail vein with the ^61Cu-labeled radioligands (100 μL, […], 0.8-1MBq). Mice were euthanized 1h and 4h pi. by CO2 asphyxiation. Organs of interest and blood were collected, rinsed of excess blood, blotted dry, weighed, and counted in a […]. The samples were counted against a suitably diluted aliquot of the injected solution as the standard and the results are expressed as the percentage of the injected activity per gram of tissue (0% I.A./g)+SD.

[3] = system: HT-1080.hFAP cells; assay: In vitro cellular uptake (cell surface and internalized fractions) in HT-1080.hFAP cells; assay type: cell-based, human
Method: (§1) The cellular uptake was studied in vitro using intact cells seeded in 6-well plates overnight. On the day of the experiment, the cells were washed and incubated with each of the exemplified [^61Cu]Cu-radiotracer at different time points, either alone or in the presence of a blocking agent to distinguish between specific and non-specific uptake. At each investigated time point, the medium containing the unbound (free) radiotracer was removed, followed by two washing steps with ice-cold phosphate-buffered saline. The cells were then treated 2×5 min with ice-cold glycine solution (0.05 M, pH 2.8) to detach the cell surface-bound radiotracer (acid released). Afterwards, the cells containing the internalized radiotracer were detached with 1 M NaOH at 37° C. and collected for measurement. The amount of specific cell surface-bound and internalized radiotracer is expressed as percentage of the total applied activity, after subtracting the non-specific values.
as §1, with “^61Cu-labeled conjugate” for “of the exemplified [^61Cu]Cu-radiotracer”
The cells were then preconditioned in 360 μL of assay medium (MEM medium without supplements) at 37° C. for 60 min. 40 μL of a 2 nM solution of ^61Cu-labeled radioligand was added and the cells were incubated at 37° C. The cellular uptake was interrupted at different time points (15 min, 1 hour and 4 hours), by washing twice with ice-cold PBS. Cell surface-bound radioligand was obtained by washing cells twice with ice-cold glycine buffer (pH 2.8), followed by a collection of the internalized fraction with 1 M NaOH. The activity in each fraction was measured in a γ-counter (Cobra II).

[4] = biological target: hFAP (Homo sapiens (Human), UniProt Q12884); assay: Saturation binding on isolated HEK-293.hFAP cell membranes; design: Bmax: unit not given here; details: 37° C.
Procedure, shortened: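 Membranes of HEK-293 cells expressing human FAP (10 μg protein/well) incubated with radioligand in 20 mM HEPES pH 7.4 with MgCl2, 0.2% BSA and protease inhibitors. Nonspecific binding defined with 0.1 mM FAPI-46. KD and Bmax derived from bound fraction versus equilibrium radioligand concentration.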

hFAP, sequence (Q12884 whole entry): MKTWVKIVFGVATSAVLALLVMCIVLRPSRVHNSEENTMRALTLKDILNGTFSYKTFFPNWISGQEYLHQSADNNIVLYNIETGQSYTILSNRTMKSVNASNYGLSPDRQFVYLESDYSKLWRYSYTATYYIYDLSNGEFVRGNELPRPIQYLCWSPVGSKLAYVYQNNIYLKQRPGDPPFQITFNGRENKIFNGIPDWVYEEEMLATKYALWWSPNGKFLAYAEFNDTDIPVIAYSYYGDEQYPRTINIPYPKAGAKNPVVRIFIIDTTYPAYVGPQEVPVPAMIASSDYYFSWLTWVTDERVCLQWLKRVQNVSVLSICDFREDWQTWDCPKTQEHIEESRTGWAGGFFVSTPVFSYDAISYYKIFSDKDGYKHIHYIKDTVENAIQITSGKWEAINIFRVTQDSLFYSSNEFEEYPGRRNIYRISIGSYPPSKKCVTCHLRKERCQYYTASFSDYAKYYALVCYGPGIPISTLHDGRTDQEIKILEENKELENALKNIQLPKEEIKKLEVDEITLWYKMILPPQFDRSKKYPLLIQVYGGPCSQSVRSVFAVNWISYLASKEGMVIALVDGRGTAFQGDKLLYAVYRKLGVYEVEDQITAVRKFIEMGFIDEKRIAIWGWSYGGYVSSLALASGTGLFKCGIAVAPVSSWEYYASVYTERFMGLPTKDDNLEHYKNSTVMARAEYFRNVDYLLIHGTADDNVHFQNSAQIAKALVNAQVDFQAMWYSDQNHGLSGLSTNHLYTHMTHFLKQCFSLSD

- retention in the body (remaining PET activity) [1]: highest retention in the body
- Biodistribution Adrenal ([2]; 1 h p.i.): 2.2 ± 0.1 % IA/g
- Biodistribution Blood ([2]; 1 h p.i.): 2.6 ± 0.1 % IA/g
- Biodistribution Femur ([2]; 1 h p.i.): 6.5 ± 0.4 % IA/g
- Biodistribution HT1080.hFAP (FAP-positive tumor) ([2]; 1 h p.i.): 8.4 ± 1.4 % IA/g
- Biodistribution HT1080.wt (FAP-negative tumor) ([2]; 1 h p.i.): 3.1 ± 0.0 % IA/g
- Biodistribution Heart ([2]; 1 h p.i.): 1.1 ± 0.0 % IA/g
- Biodistribution Intestine ([2]; 1 h p.i.): 1.0 ± 0.4 % IA/g
- Biodistribution Kidney ([2]; 1 h p.i.): 1.5 ± 0.1 % IA/g
- Biodistribution Liver ([2]; 1 h p.i.): 0.9 ± 0.0 % IA/g
- Biodistribution Lung ([2]; 1 h p.i.): 1.5 ± 0. % IA/g
- Biodistribution Muscle ([2]; 1 h p.i.): 1.7 ± 0.1 % IA/g
- Biodistribution Pancreas ([2]; 1 h p.i.): 2.0 ± 0.2 % IA/g
- Biodistribution Spleen ([2]; 1 h p.i.): 0.7 ± 0.1 % IA/g
- Biodistribution Stomach ([2]; 1 h p.i.): 1.0 ± 0.1 % IA/g
- Biodistribution Adrenal ([2]; 4 h p.i.): 2.0 ± 0.2 % IA/g
- Biodistribution Blood ([2]; 4 h p.i.): 1.5 ± 0.1 % IA/g
- Biodistribution Femur ([2]; 4 h p.i.): 4.6 ± 0.4 % IA/g
- Biodistribution HT1080.hFAP (FAP-positive tumor) ([2]; 4 h p.i.): 7.7 ± 0.4 % IA/g
- Biodistribution HT1080.wt (FAP-negative tumor) ([2]; 4 h p.i.): 2.5 ± 0.2 % IA/g
- Biodistribution Heart ([2]; 4 h p.i.): 0.7 ± 0.1 % IA/g
- Biodistribution Intestine ([2]; 4 h p.i.): 0.6 ± 0.2 % IA/g
- Biodistribution Kidney ([2]; 4 h p.i.): 1.0 ± 0.1 % IA/g
- Biodistribution Liver ([2]; 4 h p.i.): 0.8 ± 0.2 % IA/g
- Biodistribution Lung ([2]; 4 h p.i.): 1.0 ± 0.1 % IA/g
- Biodistribution Muscle ([2]; 4 h p.i.): 1.4 ± 0.2 % IA/g
- Biodistribution Pancreas ([2]; 4 h p.i.): 1.6 ± 0.1 % IA/g
- Biodistribution Spleen ([2]; 4 h p.i.): 0.5 ± 0.1 % IA/g
- Biodistribution Stomach ([2]; 4 h p.i.): 0.6 ± 0.1 % IA/g
- Bmax [4]: 9.0-10.3
SMILES: CN(CCCN1CCN(C(=O)CCC(C(=O)O)N2CCN3CCN(CC2)CC(=O)[O][61Cu][O]C(=O)C3)CC1)c1ccc2nccc(C(=O)NCC(=O)N3CC(F)(F)C[C@H]3C#N)c2c1 (some centres unmarked) [[^61Cu]Cu-NODAGA-FAPI-46]
- accumulation in tumor and target-positive tissues [2]: high accumulation in FAP-positive (HT-1080.hFAP) tumor and murine-FAP-positive tissues
- Cell surface fraction ([3]; 15 min, HT-1080.hFAP cells, specific uptake (minus HT-1080.wt)): 0.9 ± 0.3 % of the applied activity
- Internalized fraction ([3]; 240 min, HT-1080.hFAP cells, specific uptake (minus HT-1080.wt)): 50.0 ± 6.0 % of the applied activity
- Cell surface fraction ([3]; Time Point 15 min, 0.2 nM): 0.9 ± 0.3 percentage of the total applied activity
- Internalized fraction ([3]; Time Point 240 min, 0.2 nM): 50.0 ± 6.0 percentage of the total applied activity
